The target of one test is Human Cot (Homo sapiens (Human), UniProt P41279). The test can be described thus: High Throughput Cot Biochemical Assay. The note with it: Cot HTRF (TR-FRET) biochemical assay.
The subject of another test is TNFα. The test can be described thus: Cot Monocyte TNFα Cell Based Assay.
Where [1] appears, read: Homo sapiens, Monocyte, read-out: EC50 TNF, LPS-stimulated human monocytes, TNFα.
Setting [2] is: read-out: EC50 TNF, LPS-stimulated human monocytes, TNFα.

The structures appear in SMILES notation. Like-named read-outs stand apart in the source and are kept apart here. Where only a bound is given, the exact number is not on record here.

Sequence of Human Cot (P41279 30-397): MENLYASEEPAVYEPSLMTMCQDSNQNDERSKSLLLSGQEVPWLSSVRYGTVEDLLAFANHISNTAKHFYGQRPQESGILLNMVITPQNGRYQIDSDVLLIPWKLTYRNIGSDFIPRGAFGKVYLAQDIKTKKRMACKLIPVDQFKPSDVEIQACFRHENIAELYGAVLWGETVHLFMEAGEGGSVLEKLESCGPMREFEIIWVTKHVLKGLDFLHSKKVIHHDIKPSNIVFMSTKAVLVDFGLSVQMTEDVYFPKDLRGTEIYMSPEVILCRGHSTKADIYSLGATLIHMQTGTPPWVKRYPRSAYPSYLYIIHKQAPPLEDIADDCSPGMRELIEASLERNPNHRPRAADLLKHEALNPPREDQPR

On to `[2H]C([2H])([2H])C([2H])([2H])[C@@H](Nc1c(C#N)cnc2c(Cl)cc(N[C@@]([2H])(c3ccc(F)nc3)c3cn(C4CC4)nn3)cc12)c1ccccc1` [Example 106, 8-chloro-6-(((S)-(1-cyclopropyl-1H-1,2,3-triazol-4-yl)(6-fluoropyridin-3-yl)methyl-d)amino)-4-(((R)-1-phenylpropyl-2,2,3,3,3-d5)amino)-quinoline-3-carbonitrile], for which the IC50 against Human Cot (IC50 HTRF) is 2 nM. In addition, in the test with TNFα (setting [1]), the EC50 worked out at 76 nM.

For the molecule `[2H]C([2H])([2H])C([2H])([2H])[C@H](Nc1c(C#N)cnc2c(Cl)cc(N[C@@]([2H])(c3ccc(F)nc3)c3cn(C4CC4)nn3)cc12)c1ccccc1` [Example 107, 8-chloro-6-(((S)-(1-cyclopropyl-1H-1,2,3-triazol-4-yl)(6-fluoropyridin-3-yl)methyl-d)amino)-4-(((S)-1-phenyl-propyl-2,2,3,3,3-d5)amino)quinoline-3-carbonitrile], the midpoint of inhibition against Human Cot (IC50 HTRF), the IC50, lay at 182 nM. In the test with TNFα (setting [1]), the concentration for a half-maximal effect (EC50) is greater than 10000 nM.

Regarding `[2H]C([2H])([2H])C([2H])([2H])[C@@H](Nc1c(C#N)cnc2c(Cl)cc(N[C@]([2H])(c3ccc(F)nc3)c3cn(C4CC4)nn3)cc12)c1ccccc1` [Example 108, 8-chloro-6-(((R)-(1-cyclopropyl-1H-1,2,3-triazol-4-yl)(6-fluoropyridin-3-yl)methyl-d)amino)-4-(((R)-1-phenyl-propyl-2,2,3,3,3-d5)amino)quinoline-3-carbonitrile], on Human Cot (IC50 HTRF), the IC50 was found to be 913 nM. Besides, the concentration giving a half-maximal response (EC50) with TNFα (setting [1]) was greater than 10000 nM.

`[2H]C([2H])([2H])C([2H])([2H])[C@@]([2H])(Nc1c(C#N)cnc2c(Cl)cc(N[C@@]([2H])(c3ccc(F)nc3)c3cn(C4CC4)nn3)cc12)c1ccccc1` [Example 109, 8-chloro-6-(((S)-(1-cyclopropyl-1H-1,2,3-triazol-4-yl)(6-fluoropyridin-3-yl)methyl-d)amino)-4-(((R)-1-phenylpropyl-1,2,2,3,3,3-d6)amino)quinoline-3-carbonitrile] gave an IC50 on Human Cot (IC50 HTRF) of 2 nM. Also, in the test with TNFα (setting [1]), the EC50 is 54 nM.

Consider `[2H]C(Nc1cc(Cl)c2ncc(C#N)c(NCC(C)(C)C)c2c1)(c1cn(C2CC2)nn1)c1cc(F)cnc1C` (centres unmarked) [Example 114, 8-chloro-6-(((1-cyclopropyl-1H-1,2,3-triazol-4-yl)(5-fluoro-2-methylpyridin-3-yl)methyl-d)amino)-4-(neopentylamino)quinoline-3-carbonitrile], for which the IC50 against Human Cot (IC50 HTRF) was found to be 10 nM. Besides, in the test with TNFα (setting [1]), the 50% effective concentration (EC50) was determined as 233 nM.

On Human Cot (IC50 HTRF), `[2H]C([2H])([2H])C([2H])([2H])C(Nc1c(C#N)cnc2c(Cl)cc(N[C@@]([2H])(c3ccc(F)nc3)c3cn(C4CC4)nn3)cc12)c1ccccc1` (stereo partly drawn) [Example 115, 8-chloro-6-(((S)-(1-cyclopropyl-1H-1,2,3-triazol-4-yl)(6-fluoropyridin-3-yl)methyl-d)amino)-4-((1-phenylpropyl-2,2,3,3,3-d5)amino)quinoline-3-carbonitrile] returned an IC50 of 5 nM. The 50% effective concentration (EC50) in the test with TNFα (setting [1]) was 119 nM.

With `[2H][C@](Nc1cc(C#N)c2ncc(C#N)c(NCC(C)(C)C)c2c1)(c1ccc(F)nc1)c1cn(C2CC2)nn1` [Example 116, (S)-6-(((1-cyclopropyl-1H-1,2,3-triazol-4-yl)(6-fluoropyridin-3-yl)methyl-d)amino)-4-(neopentylamino)quinoline-3,8-dicarbonitrile], the half-inhibitory concentration (IC50) at Human Cot (IC50 HTRF) turned out to be 3 nM. Further, the EC50 in the test on TNFα (setting [1]) is 144 nM.

For `[2H][C@](Nc1cc(C#N)c2ncc(C#N)c(N[C@H](CC)c3ccccc3)c2c1)(c1ccc(F)nc1)c1cn(C2CC2)nn1` [Example 117, 6-(((S)-(-cyclopropyl-1H-1,2,3-triazol-4-yl)(6-fluoropyridin-3-yl)methyl-d)amino)-4-(((R)-1-phenylpropyl)amino)quinoline-3,8-dicarbonitrile], the IC50 on Human Cot (IC50 HTRF) stood at 3 nM. Moreover, the EC50 in the test with TNFα (setting [1]) stood at 94 nM.

In the case of `[2H][C@](Nc1cc(Cl)c2ncc(C#N)c(N[C@H](CC)c3ccccc3)c2c1)(c1ccc(F)nc1)c1cn(C(C)(C)C)nn1` [Example 118, 6-(((S)-(1-(tert-butyl)-1H-1,2,3-triazol-4-yl)(6-fluoropyridin-3-yl)methyl-d)amino)-8-chloro-4-(((R)-1-phenylpropyl)amino)quinoline-3-carbonitrile], the IC50 against Human Cot (IC50 HTRF) amounted to 6 nM. Besides, the EC50 in the test with TNFα (setting [1]) was found to be 150 nM.

`CC[C@@H](Nc1c(C#N)cnc2c(F)cc(N[C@@H](c3ccc(F)nc3)c3cn(C4CC4)nn3)cc12)c1ccccc1` [Example 120, 6-(((S)-(-cyclopropyl-1H-1,2,3-triazol-4-yl)(6-fluoropyridin-3-yl)methyl-d)amino)-8-fluoro-4-(((R)-1-phenylpropyl)amino)quinolme-3-carbonitrile]: the IC50 on Human Cot (read-out: IC50 HTRF) came to 5 nM. Further, the EC50 with TNFα (setting [2]) was 137 nM.

Take `[2H]C(Nc1cc(Cl)c2ncc(C#N)c(N[C@H](CCO)c3ccccc3)c2c1)(c1ccc(F)nc1)c1cn(C2CC2)nn1` (stereo partly drawn) [Example 121, 8-chloro-6-(((1-cyclopropyl-1H-1,2,3-triazol-4-yl)(6-fluoropyridin-3-yl)methyl-d)amino)-4-(((R)-3-hydroxy-1-phenylpropyl)amino)quinoline-3-carbonitrile]: it took 7 nM to reach half-maximal inhibition at Human Cot (IC50 HTRF) (IC50). Moreover, the half-maximal effective concentration (EC50) in the test with TNFα (setting [1]) worked out at 171 nM.

`[2H]C(Nc1cc(Cl)c2ncc(C#N)c(N[C@H](CC)c3ccccc3)c2c1)(c1cn(C2CC2)nn1)c1ccc(Cl)nc1C` (stereo partly drawn) [Example 122, 8-chloro-6-(((6-chloro-2-methylpyridin-3-yl)(1-cyclopropyl-1H-1,2,3-triazol-4-yl)methyl-d)amino)-4-(((R)-1-phenylpropyl)amino)quinoline-3-carbonitrile]: the IC50 at Human Cot (IC50 HTRF) worked out at 6 nM. Further, the EC50 in the test on TNFα (setting [1]) is 240 nM.

In turn, `[2H]C(Nc1cc(Cl)c2ncc(C#N)c(N[C@H](CC)c3ccccc3)c2c1)(c1cn(C2CC2)nn1)c1cc(C#N)cs1` (stereo partly drawn) [Example 123, 8-chloro-6-(((4-cyanothiophen-2-yl)(1-cyclopropyl-1H-1,2,3-triazol-4-yl)methyl-d)amino)-4-(((R)-1-phenylpropyl)amino)quinoline-3-carbonitrile] came in with an IC50 at Human Cot (IC50 HTRF) of 6 nM. Further, the EC50 in the test on TNFα (setting [1]) turned out to be 193 nM.

Take `CC[C@@H](Nc1c(C#N)cnc2c(Cl)cc(NC(c3cn(C4CC4)nn3)c3cccnc3Cl)cc12)c1ccccc1` (stereo partly drawn) [Example 124, 8-chloro-6-(((2-chloropyridin-3-yl)(1-cyclopropyl-1H-1,2,3-triazol-4-yl)methyl-d)amino)-4-(((R)-1-phenylpropyl)amino)quinolme-3-carbonitrile]: at Human Cot (read-out: IC50 HTRF), the IC50 turned out to be 8 nM. Also, the EC50 in the test on TNFα (setting [2]) is 376 nM.

On Human Cot (IC50 HTRF), `[2H]C(Nc1cc(Cl)c2ncc(C#N)c(NCC(C)(C)C)c2c1)(c1cn(C2CC2)nn1)c1ccc(Cl)nc1C` (centres unmarked) [Example 125, 8-chloro-6-(((6-chloro-2-methylpyridin-3-yl)(1-cyclopropyl-1H-1,2,3-triazol-4-yl)methyl-d)amino)-4-(neopentylamino)quinoline-3-carbonitrile] showed a 50% inhibitory concentration (IC50) of 3 nM. Further, the EC50 in the test on TNFα (setting [1]) stood at 78 nM.

`[2H]C(Nc1cc(Cl)c2ncc(C#N)c(NCC(C)(C)C)c2c1)(c1cn(C2CC2)nn1)c1cccnc1Cl` (centres unmarked) [Example 126, 8-chloro-6-(((2-chloropyridin-3-yl)(1-cyclopropyl-1H-1,2,3-triazol-4-yl)methyl-d)amino)-4-(neopentylamino)quinoline-3-carbonitrile] showed a concentration for half-maximal inhibition (IC50) at Human Cot (IC50 HTRF) of 3 nM. Also, the EC50 with TNFα (setting [1]) was found to be 146 nM.

For `[2H][C@](Nc1cc(Cl)c2ncc(C#N)c(Nc3c(F)ccc(Cl)c3F)c2c1)(c1ccc(F)nc1)c1cn(C2CC2)nn1` [Example 127, (S)-8-chloro-4-((3-chloro-2,6-difluorophenyl)amino)-6-(((1-cyclopropyl-1H-1,2,3-triazol-4-yl)(6-fluoropyridin-3-yl)methyl-d)amino)quinoline-3-carbonitrile], the IC50 on Human Cot (IC50 HTRF) was determined as 16 nM. Moreover, the EC50 with TNFα (setting [1]) turned out to be 194 nM.

`[2H][C@](Nc1cc(Cl)c2ncc(C#N)c(N[C@@H](CC#N)c3ccccc3)c2c1)(c1ccc(F)nc1)c1cn(C2CC2)nn1` [Example 128, 8-chloro-4-(((S)-2-cyano-1-phenylethyl)amino)-6-(((S)-(1-cyclopropyl-1H-1,2,3-triazol-4-yl)(6-fluoropyridin-3-yl)methyl-d)amino)quinoline-3-carbonitrile] gave a half-inhibitory concentration (IC50) on Human Cot (IC50 HTRF) of 698 nM. The EC50 in the test with TNFα (setting [1]) was greater than 10000 nM.

`[2H][C@](Nc1cc(Cl)c2ncc(C#N)c(N[C@H](CC#N)c3ccccc3)c2c1)(c1ccc(F)nc1)c1cn(C2CC2)nn1` [Example 129, 8-chloro-4-(((R)-2-cyano-1-phenylethyl)amino)-6-(((S)-(1-cyclopropyl-1H-1,2,3-triazol-4-yl)(6-fluoropyridin-3-yl)methyl-d)amino)quinoline-3-carbonitrile] registered a half-inhibitory concentration (IC50) against Human Cot (IC50 HTRF) of 2 nM. The EC50 in the test with TNFα (setting [1]) turned out to be 81 nM.

Molecule `Cc1ncccc1[C@H](Nc1cc(Cl)c2ncc(C#N)c(NCC(C)(C)C)c2c1)c1cn(C2CC2)nn1` [Example 131, (S)-8-chloro-6-(((1-cyclopropyl-1H-1,2,3-triazol-4-yl)(2-methylpyridin-3-yl)methyl)amino)-4-(neopentyl-amino)quinoline-3-carbonitrile] gave a concentration for half-maximal inhibition (IC50) against Human Cot (IC50 HTRF) of 2 nM. Further, the EC50 with TNFα (setting [1]) was 49 nM.

At Human Cot (IC50 HTRF), `[2H][C@](Nc1cc(Cl)c2ncc(C#N)c(N[C@H](CC)c3ccccc3)c2c1)(c1ccc(F)nc1)c1c[nH]nn1` [Example 134, 8-chloro-6-(((S)-(6-fluoropyridin-3-yl)(1H-1,2,3-triazol-4-yl)methyl-d)amino)-4-(((R)-1-phenylpropyl)amino)quinoline-3-carbonitrile] came in with an IC50 of 6 nM. The EC50 in the test with TNFα (setting [1]) worked out at 197 nM.

The molecule `[2H][C@](Nc1cc(Cl)c2ncc(C#N)c(NCC(C)(C)C)c2c1)(c1cccnc1)c1cn(-c2cccnc2)nn1` [Example 138, (S)-8-chloro-4-(neopentylamino)-6-((pyridin-3-yl(1-(pyridin-3-yl)-1H-1,2,3-triazol-4-yl)methyl-d)amino)quinoline-3-carbonitrile] returned an IC50 on Human Cot (IC50 HTRF) of 3 nM. Besides, in the test with TNFα (setting [1]), the concentration giving a half-maximal response (EC50) turned out to be 141 nM.

The record behind these values is US11066414B2, “Cot modulators and methods of use thereof” (Gilead Sciences, Inc., priority 2015, dated 2021).
